Tests used:
[1] = system: Phosphatidylinositol 4,5-bisphosphate 3-kinase catalytic subunit alpha isoform (Homo sapiens), P42336 [E542K]
[2] = molecular target: T1, Serine/threonine-protein kinase 3 (Homo sapiens) (UniProt Q13188)
T1 sequence (whole entry): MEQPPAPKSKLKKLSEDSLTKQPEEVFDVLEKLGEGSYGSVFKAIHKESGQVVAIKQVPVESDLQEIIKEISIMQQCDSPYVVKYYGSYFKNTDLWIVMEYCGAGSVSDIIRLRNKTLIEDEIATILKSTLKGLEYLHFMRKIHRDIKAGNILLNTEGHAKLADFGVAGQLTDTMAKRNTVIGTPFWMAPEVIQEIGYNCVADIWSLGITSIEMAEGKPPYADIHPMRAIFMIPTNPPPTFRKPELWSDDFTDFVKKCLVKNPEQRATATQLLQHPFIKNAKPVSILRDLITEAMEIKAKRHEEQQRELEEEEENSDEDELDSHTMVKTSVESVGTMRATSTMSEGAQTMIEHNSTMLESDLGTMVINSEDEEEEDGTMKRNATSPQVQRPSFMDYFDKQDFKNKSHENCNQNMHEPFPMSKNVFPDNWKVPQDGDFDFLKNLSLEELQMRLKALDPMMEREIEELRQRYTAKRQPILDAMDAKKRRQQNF

[3] = molecular target: Tyrosine-protein kinase Blk (Homo sapiens) (UniProt P51451)
[4] = molecular target: Cyclin-dependent kinase 18 (Homo sapiens) (UniProt Q07002)
[5] = molecular target: Mitogen-activated protein kinase kinase kinase 5 (Homo sapiens) (UniProt Q99683)
[6] = molecular target: Ephrin type-A receptor 6 (Homo sapiens) (UniProt Q9UF33)
[7] = molecular target: Mitogen-activated protein kinase 4 (Homo sapiens) (UniProt P31152)
[8] = molecular target: Dual specificity mitogen-activated protein kinase kinase 3 (Homo sapiens) (UniProt P46734)
[9] = molecular target: Tyrosine-protein kinase JAK1 (Homo sapiens) (UniProt P23458)
[10] = molecular target: T2, Serine/threonine-protein kinase TAO3 (Homo sapiens) (UniProt Q9H2K8)
T2 sequence (whole entry): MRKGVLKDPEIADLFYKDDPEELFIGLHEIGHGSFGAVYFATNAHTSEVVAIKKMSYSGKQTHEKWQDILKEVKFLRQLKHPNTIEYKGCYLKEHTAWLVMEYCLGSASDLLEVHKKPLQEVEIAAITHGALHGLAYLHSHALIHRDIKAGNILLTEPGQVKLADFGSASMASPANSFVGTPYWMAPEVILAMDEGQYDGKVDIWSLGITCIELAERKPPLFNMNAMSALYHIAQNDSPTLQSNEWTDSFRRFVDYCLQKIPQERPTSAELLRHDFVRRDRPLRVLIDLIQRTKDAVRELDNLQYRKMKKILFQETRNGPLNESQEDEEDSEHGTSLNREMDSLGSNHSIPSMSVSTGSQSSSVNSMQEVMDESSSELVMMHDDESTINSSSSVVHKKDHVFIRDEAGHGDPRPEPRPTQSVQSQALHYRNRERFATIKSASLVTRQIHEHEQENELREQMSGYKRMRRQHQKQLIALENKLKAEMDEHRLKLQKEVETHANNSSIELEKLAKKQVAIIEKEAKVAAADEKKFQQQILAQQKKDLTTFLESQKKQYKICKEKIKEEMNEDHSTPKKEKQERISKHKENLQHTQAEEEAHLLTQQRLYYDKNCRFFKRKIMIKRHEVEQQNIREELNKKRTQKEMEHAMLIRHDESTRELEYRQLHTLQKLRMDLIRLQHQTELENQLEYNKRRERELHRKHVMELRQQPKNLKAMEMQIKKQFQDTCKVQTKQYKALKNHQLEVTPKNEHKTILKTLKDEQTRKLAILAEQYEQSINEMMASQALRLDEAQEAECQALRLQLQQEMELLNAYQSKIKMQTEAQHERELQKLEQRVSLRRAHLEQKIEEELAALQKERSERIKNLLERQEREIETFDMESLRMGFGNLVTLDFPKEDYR

[11] = molecular target: T3, Inhibitor of nuclear factor kappa-B kinase subunit epsilon (Homo sapiens) (UniProt Q14164)
T3 sequence (whole entry): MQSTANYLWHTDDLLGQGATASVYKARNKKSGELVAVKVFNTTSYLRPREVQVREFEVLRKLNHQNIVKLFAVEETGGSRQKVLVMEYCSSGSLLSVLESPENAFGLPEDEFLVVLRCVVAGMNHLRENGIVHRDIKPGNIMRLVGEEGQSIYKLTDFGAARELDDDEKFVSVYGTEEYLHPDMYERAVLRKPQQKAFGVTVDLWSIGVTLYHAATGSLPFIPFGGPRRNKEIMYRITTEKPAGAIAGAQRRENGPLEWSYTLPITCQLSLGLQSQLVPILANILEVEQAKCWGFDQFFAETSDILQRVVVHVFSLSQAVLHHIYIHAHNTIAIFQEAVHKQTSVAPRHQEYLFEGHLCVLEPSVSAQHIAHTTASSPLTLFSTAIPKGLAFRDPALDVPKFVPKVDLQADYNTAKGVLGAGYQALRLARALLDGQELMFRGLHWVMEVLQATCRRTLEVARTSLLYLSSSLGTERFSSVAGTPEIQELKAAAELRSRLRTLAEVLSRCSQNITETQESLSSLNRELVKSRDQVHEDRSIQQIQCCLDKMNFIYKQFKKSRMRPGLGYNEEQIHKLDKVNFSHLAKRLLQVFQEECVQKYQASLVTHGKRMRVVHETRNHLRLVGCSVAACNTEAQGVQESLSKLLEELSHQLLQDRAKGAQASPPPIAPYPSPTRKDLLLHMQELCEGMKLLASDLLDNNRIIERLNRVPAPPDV

[12] = molecular target: Tyrosine-protein kinase receptor UFO (Homo sapiens) (UniProt P30530)
[13] = molecular target: Calcium/calmodulin-dependent protein kinase kinase 2 (Homo sapiens) (UniProt Q96RR4)
[14] = molecular target: Vascular endothelial growth factor receptor 1 (Homo sapiens, UniProt P17948)
[15] = molecular target: Serine/threonine-protein kinase WNK1 (Homo sapiens) (UniProt Q9H4A3)
[16] = molecular target: Calcium/calmodulin-dependent protein kinase type II subunit alpha (Homo sapiens) (UniProt Q9UQM7)
[17] = molecular target: Tyrosine-protein kinase ABL2 (Homo sapiens) (UniProt P42684)
[18] = Compound concentration 100.0 nM
[19] = Compound concentration 1000.0 nM

Chain of Cyclin-dependent kinase 18 (Homo sapiens) (Q07002 whole entry): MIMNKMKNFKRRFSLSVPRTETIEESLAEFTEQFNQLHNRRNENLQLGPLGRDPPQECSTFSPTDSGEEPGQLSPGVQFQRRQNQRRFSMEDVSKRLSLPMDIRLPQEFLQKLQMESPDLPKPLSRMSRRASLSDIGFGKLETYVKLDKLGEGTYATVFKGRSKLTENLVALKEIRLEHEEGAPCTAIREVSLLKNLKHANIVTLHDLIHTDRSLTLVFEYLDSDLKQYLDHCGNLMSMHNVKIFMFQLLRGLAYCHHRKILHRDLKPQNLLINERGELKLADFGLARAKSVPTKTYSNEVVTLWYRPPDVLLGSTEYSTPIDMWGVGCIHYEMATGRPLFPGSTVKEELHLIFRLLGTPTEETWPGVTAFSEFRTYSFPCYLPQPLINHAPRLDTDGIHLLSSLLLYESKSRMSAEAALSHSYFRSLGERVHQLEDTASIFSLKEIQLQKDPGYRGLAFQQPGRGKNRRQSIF
Chain of Tyrosine-protein kinase receptor UFO (Homo sapiens) (P30530 whole entry): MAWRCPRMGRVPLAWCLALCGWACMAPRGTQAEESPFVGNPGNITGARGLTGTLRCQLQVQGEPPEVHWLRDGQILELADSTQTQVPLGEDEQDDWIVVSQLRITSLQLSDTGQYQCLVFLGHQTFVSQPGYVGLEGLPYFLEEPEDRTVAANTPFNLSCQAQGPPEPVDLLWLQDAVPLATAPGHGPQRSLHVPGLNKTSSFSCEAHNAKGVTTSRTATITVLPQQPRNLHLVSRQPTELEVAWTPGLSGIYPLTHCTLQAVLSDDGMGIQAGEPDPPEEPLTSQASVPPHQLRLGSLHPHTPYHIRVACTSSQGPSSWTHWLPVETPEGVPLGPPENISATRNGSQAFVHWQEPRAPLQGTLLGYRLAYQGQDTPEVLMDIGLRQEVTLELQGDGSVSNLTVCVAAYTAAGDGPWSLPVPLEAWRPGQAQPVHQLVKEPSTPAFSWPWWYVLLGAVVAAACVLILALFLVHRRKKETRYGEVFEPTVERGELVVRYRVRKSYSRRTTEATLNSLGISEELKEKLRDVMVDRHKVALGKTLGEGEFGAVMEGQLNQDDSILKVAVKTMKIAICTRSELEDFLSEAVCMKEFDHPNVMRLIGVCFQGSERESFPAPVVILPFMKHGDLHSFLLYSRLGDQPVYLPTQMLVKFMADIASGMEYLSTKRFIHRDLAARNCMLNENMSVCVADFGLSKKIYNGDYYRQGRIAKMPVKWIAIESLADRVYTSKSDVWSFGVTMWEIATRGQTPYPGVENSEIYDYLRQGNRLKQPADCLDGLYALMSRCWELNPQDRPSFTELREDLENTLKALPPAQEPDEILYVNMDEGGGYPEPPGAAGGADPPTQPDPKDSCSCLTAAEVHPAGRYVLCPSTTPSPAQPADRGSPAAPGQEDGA
Chain of Mitogen-activated protein kinase kinase kinase 5 (Homo sapiens) (Q99683 whole entry): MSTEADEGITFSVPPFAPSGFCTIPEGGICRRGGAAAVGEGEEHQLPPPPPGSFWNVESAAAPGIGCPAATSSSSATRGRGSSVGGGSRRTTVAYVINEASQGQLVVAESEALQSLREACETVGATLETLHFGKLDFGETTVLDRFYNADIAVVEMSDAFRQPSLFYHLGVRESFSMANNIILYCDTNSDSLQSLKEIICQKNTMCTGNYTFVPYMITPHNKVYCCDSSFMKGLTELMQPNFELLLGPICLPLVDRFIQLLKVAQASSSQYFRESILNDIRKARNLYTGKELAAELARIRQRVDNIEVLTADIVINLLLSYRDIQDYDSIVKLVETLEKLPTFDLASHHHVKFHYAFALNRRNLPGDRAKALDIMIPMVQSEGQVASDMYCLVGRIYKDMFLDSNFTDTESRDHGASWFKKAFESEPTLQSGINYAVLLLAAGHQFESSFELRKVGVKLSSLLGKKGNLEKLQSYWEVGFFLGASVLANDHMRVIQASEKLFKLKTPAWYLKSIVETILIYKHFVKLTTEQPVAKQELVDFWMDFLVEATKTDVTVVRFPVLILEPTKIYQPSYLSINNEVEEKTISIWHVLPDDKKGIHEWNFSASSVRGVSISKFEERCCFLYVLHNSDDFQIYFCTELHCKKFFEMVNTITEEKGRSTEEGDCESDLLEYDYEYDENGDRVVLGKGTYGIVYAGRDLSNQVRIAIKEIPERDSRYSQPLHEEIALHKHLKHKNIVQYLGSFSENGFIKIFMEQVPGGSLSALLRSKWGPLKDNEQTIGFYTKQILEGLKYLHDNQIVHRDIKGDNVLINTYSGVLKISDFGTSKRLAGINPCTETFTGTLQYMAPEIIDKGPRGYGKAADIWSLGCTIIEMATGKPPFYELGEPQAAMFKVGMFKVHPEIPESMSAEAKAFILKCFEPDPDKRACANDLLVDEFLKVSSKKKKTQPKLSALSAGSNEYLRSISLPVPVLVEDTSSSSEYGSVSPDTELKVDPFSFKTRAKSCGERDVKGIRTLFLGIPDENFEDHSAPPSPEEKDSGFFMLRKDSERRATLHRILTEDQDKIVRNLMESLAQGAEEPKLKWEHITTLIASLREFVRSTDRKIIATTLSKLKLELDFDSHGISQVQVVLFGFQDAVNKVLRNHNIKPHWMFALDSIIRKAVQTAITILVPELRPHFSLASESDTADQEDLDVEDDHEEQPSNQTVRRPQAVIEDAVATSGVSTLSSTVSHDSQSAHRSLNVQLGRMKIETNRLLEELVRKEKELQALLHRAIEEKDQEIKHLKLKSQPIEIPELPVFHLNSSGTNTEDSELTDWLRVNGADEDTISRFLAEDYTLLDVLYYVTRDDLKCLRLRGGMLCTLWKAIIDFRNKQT
Chain of Tyrosine-protein kinase Blk (Homo sapiens) (P51451 2-505 limits assumed): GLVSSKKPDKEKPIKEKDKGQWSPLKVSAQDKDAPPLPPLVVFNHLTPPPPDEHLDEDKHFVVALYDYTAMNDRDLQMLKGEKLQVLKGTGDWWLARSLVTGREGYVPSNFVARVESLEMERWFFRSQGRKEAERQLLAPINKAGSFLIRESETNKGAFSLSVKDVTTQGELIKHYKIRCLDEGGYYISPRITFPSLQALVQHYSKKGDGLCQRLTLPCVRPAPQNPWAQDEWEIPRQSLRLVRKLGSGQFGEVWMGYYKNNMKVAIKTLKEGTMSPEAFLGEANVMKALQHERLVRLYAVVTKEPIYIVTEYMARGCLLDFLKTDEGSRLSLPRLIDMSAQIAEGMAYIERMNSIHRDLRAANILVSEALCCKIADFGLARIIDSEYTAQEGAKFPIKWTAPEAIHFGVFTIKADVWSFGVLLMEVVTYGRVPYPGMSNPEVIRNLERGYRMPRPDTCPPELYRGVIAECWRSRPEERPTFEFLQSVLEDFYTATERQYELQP
Chain of Vascular endothelial growth factor receptor 1 (P17948 whole entry): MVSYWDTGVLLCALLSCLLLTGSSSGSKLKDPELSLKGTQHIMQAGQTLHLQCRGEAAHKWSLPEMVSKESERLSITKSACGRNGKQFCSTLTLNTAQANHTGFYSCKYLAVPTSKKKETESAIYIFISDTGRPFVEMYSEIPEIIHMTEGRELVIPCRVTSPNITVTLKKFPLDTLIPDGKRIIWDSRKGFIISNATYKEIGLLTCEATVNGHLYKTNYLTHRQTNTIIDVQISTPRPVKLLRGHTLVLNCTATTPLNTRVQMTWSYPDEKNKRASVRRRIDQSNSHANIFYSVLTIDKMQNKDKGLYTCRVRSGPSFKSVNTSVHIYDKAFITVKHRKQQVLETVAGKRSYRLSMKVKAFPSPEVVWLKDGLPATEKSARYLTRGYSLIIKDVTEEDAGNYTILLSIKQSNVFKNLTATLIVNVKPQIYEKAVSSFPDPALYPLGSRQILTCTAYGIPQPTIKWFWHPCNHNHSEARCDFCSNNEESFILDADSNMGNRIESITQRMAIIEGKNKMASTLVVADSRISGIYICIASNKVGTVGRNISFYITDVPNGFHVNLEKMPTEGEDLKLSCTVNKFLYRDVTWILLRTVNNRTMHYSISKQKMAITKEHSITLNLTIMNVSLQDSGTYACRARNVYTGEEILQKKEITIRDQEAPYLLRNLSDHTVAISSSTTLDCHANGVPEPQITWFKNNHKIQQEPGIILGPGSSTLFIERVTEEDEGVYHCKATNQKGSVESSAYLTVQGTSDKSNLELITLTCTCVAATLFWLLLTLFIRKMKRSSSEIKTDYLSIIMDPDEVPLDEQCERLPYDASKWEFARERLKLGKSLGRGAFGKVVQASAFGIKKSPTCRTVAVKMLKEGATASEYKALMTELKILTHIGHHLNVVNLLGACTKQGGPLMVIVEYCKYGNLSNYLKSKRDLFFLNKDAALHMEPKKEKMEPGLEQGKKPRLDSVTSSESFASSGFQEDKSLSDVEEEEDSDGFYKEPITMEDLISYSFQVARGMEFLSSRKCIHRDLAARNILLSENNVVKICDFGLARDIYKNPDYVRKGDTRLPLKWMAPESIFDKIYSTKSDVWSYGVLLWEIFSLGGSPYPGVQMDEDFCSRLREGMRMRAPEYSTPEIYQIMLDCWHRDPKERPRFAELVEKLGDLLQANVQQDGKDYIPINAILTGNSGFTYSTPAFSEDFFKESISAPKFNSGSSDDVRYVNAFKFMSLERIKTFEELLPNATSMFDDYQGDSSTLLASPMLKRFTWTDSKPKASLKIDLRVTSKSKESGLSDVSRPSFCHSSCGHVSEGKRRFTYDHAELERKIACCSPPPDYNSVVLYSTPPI
Chain of Calcium/calmodulin-dependent protein kinase type II subunit alpha (Homo sapiens) (Q9UQM7 whole entry): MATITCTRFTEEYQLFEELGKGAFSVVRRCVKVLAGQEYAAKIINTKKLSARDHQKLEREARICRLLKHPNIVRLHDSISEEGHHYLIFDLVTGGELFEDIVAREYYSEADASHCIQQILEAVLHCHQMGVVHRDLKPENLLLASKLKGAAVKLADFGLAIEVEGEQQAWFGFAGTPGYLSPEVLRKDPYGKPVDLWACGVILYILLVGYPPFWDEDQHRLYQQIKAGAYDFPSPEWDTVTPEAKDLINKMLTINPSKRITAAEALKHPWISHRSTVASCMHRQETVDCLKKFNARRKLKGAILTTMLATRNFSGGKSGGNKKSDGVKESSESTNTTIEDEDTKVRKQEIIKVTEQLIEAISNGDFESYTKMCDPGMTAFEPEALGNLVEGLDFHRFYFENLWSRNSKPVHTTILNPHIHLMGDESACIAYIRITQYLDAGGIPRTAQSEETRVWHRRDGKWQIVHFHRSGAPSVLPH

Question: Which results are given for CNC(=O)c1ccc(Nc2ncc(C(F)(F)F)c(NCc3nccnc3N(C)S(C)(=O)=O)n2)cc1 [DEFACTINIB]?
Answer: residual activity [1, 18]: 49%; residual activity [2, 18]: 68%; residual activity [3, 18]: 78%; residual activity [4, 18]: 68%; residual activity [5, 18]: 100%; residual activity [6, 18]: 85%; residual activity [7, 18]: 87%; residual activity [8, 18]: 48%; residual activity [9, 18]: 29%; residual activity [10, 18]: 26%; residual activity [11, 18]: 99%; residual activity [12, 18]: 51%; residual activity [13, 18]: 68%; residual activity [14, 18]: 63%; residual activity [15, 18]: 100%; residual activity [16, 18]: 83%; residual activity [17, 18]: 93%

Question: Which residual activity [1, 19] does the source give for CN(c1ccnc(CNc2nc(Nc3ccc4c(c3)CC(=O)N4)ncc2C(F)(F)F)n1)S(C)(=O)=O [PF-00911705] here?
Answer: The residual activity was 100%.

Question: And the residual activity [2, 19]?
Answer: The residual activity was 46%.

Question: And the residual activity [3, 19]?
Answer: The residual activity was 40%.

Question: And the residual activity [4, 19]?
Answer: The residual activity was 100%.

Question: And the residual activity [5, 19]?
Answer: Its residual activity is 100%.

Question: And the residual activity [6, 19]?
Answer: The residual activity was 85%.

Question: What about the residual activity [7, 19] of the same compound?
Answer: Its residual activity is 57%.

Question: What about the residual activity [8, 19] of the same compound?
Answer: Its residual activity is 58%.

Question: What about the residual activity [9, 19] of the same compound?
Answer: Its residual activity is 20%.

Question: What about the residual activity [10, 19] of the same compound?
Answer: The residual activity was 12%.

Question: And the residual activity [11, 19]?
Answer: The residual activity was 18%.

Question: And the residual activity [12, 19]?
Answer: Its residual activity is 21%.

Question: And the residual activity [13, 19]?
Answer: The residual activity was 69%.

Question: What about the residual activity [14, 19] of the same compound?
Answer: Its residual activity is 69%.

Question: And the residual activity [15, 19]?
Answer: Its residual activity is 87%.

Question: What about the residual activity [16, 19] of the same compound?
Answer: Its residual activity is 67%.

Question: What about the residual activity [17, 19] of the same compound?
Answer: Its residual activity is 75%.

Reference: ChEMBL document CHEMBL4507299, “Data for DCP probe PF-04554878” (2021)
